One experiment concerns rats. As to the kind of experiment: Metabolic cage studies. The experiment is classed as in vivo, rat. The protocol:
Six rats were individually housed in Nalgene metabolism cages (Rodent Metabolism Cages for 150-300 g rats, VWR Scientific). Water and food were provided ad libidum. After 5-7 days of habituation, two baseline 24-hour urine collections were obtained. Then, an osmotic minipump containing purified porcine RLX was implanted (4 μg/hour). […] Food and water intake, as well as urinary flow rate were measured by gravimetric technique. The urinary excretion of sodium, cyclic guanosine monophosphate, and NOx were also determined. The measurements made during the two baseline collections were averaged, as were the measurements made during the three post-relaxin collections.
Plasma osmolality was measured using a freezing-point depression instrumentation osmometer (Model 3MO, Advanced Instruments, Needham Heights, Mass.). Plasma and urine IN and PAH were assayed by standard techniques. Urinary sodium concentration was measured by ion selective electrode (Sodium-Potassium Chemistry Module, Beckman Instruments, Inc., Brea, Calif.). Urinary cGMP was determined by specific radioimmunoassay as previously described. Conrad and Vernier (1989) Am. J. Physiol. 257:R847-R853. Urinary NOX was measured by reduction of nitrate to nitrite, the latter determined by the Griess reaction which produces a calorimetric product measured at 540 nm (Nitrate/Nitrite Colorimetric Assay Kit, Cayman Chemical, Ann Arbor, Mich.).

Experiment [1] concerns rat aortic endothelial cells. Nature of the experiment: 3H-thymidine uptake, rat endothelial cells. It counts as cell-based. The following applies: serum-free medium. The protocol:
Endothelial cells were derived from explant cultures of human neonatal foreskin and rat aorta. Primary human endothelial cells from umbilical vein, aorta, and lung were purchased from Clonetics-BioWhittaker Corporation (San Diego, Calif.) and cultured according to vendor instructions. ^3H-thymidine uptake was performed, as previously described, in serum-free medium. Unemori et al. (1994) Exp. Cell Res. 21:166-171.
Relaxin was then assayed for the ability to induce proliferation of endothelial cells directly. Relaxin's potential mitogenic effect was tested on human primary umbilical vein, aortic, foreskin, and pulmonary endothelial cells, as well as rat aortic endothelial cells. […] Alterations in other aspects of endothelial cell phenotype that are believed to correlate with angiogenesis were also tested. Relaxin had no effect on collagen expression, judged by SDS-PAGE of ^3H-proline-labeled cellular proteins; or metalloproteinase or tissue inhibitor of metalloproteinase-1 secretion, assessed by gelatin zymography. […] Therefore, relaxin had no apparent effect directly on endothelial cells.

Experiment [2] has as its system ischemic wound on the back region of rats. Nature of the experiment: Ischemic H-shaped double flap wound model. It counts as in vivo, rat. The protocol: The effect of rhRLX on normal and ischemic wound healing in two rat models of dermal wound healing was evaluated. RhRLX in vehicle, or vehicle alone, was delivered by subcutaneous infusion to Sprague-Dawley rats using an implanted ALZET7 osmotic pump (Alza Corp., Mountain View, Calif.).
In the second model, a standardized ischemic, H-shaped, double flap wound was made on the back region. The area of surface necrosis was measured on day 14 and day 21.
In the third animal model, a standard ischemic wound (H-shaped, 8 cm long and 2 cm wide) was created on the back region of rats. Perforating branches of the central vein were cut to ensure that the wound was ischemic. The resulting wound is then ischemic, but not completely necrotic. On day 14 and day 21, the surface necrosis was measured. RhRlx treatment (0.2 mg/kg via minipump) reduced the surface necrotic area in the flap region, compared to vehicle treatment (at day 14: vehicle 195 mm^2, rhRlx 123 mm^2; at day 21 vehicle 180 mm^2, rhRlx 103 mm^2).

For another experiment, the system named is THP-1 cells. As to the kind of experiment: THP-1 cells: morphology, 3H-thymidine uptake, metalloproteinase expression. It counts as cell-based, human.
The subject of a further experiment is human cardiac cells. As to the kind of experiment: Cellular proliferation by 3H-thymidine incorporation in cardiac cells. The experiment is classed as cell-based. The protocol:
To determine if the effects of relaxin observed in the rat were also seen in human cells, total RNA from cardiac cells was extracted following treatment of cells with 1, 10, and 100 ng/ml relaxin for 24 hours. Human cardiac cells were cultured for 24 hours either without or with relaxin (1-100 ng/ml). Untreated cells were incubated for the same 24 hour period under hypoxic (2% O2) conditions. Using 150 ng of total RNA for human VEGF and bFGF transcripts and 10 ng of total RNA for GAPDH transcripts, primer/probe sets were used to generate RT-PCR products for human VEGF 165aa and 121aa isoforns and human bFGF. Data were analyzed using Sequence Detector v1.6.3 software (Applied Biosystems/PE). VEGF and bFGF expression levels are graphed relative to GAPDH transcript levels. Data are shown as means±SEM, where n=3 per treatment group; *p<0.05; Student-Newman-Keuls test. […] Absolute baseline levels of bFGF mRNA transcripts expressed by these cells were approximately 2-fold greater than those of either the VEGF121 or the VEGF165 isoforms. Total RNA from cells incubated under hypoxic conditions was analyzed as a positive control for the stimulation of VEGF isoforms. […] Relaxin had no effect on cellular proliferation, as assessed by ^3H-thymidine incorporation, on cellular morphology, or on desmin or vimentin staining patterns.

On to “Porcine RLX: lyophilized, purified porcine relaxin (Sherwood and O'Byrne 1974), dissolved in Ringer's solution”, for which, in the experiment with rats (Baseline), the Food intake stood at 13.2 ± 1.0 g, the “Urinary NOx excretion” value amounted to 4.8 ± 0.5 μmole/24hours, the “Urinary cGMP excretion” value was 32.2 ± 1.9 nmole/24 hours and the Urinay sodium excretion came to 438.8 ± 34.4 μEq/24hours. In the experiment on rats (Baseline), this substance yielded a Urine output of 9.1 ± 1.7 ml/24 hours and a Water intake of 19.1 ± 2.7 mL. In the experiment with rats (Day 2 of RLX 4 μg/hour s.c.), the Food intake is 15.5 ± 1.5 g, the “Urinary NOx excretion” value was 6.0 ± 1.0 μmole/24hours, the “Urinary cGMP excretion” value is listed as 26.5 ± 2.5 nmole/24 hours and the Urinay sodium excretion stood at 800.2 ± 77.2 μEq/24hours. In the experiment with rats (Day 2 of RLX 4 μg/hour s.c.), this substance gave a Urine output of 11.4 ± 2.2 ml/24 hours and a Water intake of 20.1 ± 3.4 mL. In the experiment with rats (Day 5 of RLX 4 μg/hour s.c.), the Food intake worked out at 16.7 ± 1.0 g, the “Urinary NOx excretion” value is listed as 5.9 ± 0.7 μmole/24hours, the “Urinary cGMP excretion” value worked out at 28.6 ± 3.8 nmole/24 hours and the Urinay sodium excretion is reported as 477.8 ± 57.9 μEq/24hours. In the experiment on rats (Day 5 of RLX 4 μg/hour s.c.), this substance yielded a Urine output of 8.8 ± 0.9 ml/24 hours and a Water intake of 23.6 ± 3.3 mL. For the same substance, in the experiment with rats (Post-relaxin day 4-18), the Food intake amounted to 15.3 ± 0.5 g, the “Urinary NOx excretion” value was 6.1 ± 0.9 μmole/24hours, the “Urinary cGMP excretion” value amounted to 32.7 ± 3.8 nmole/24 hours and the Urinay sodium excretion is recorded as 480.69 ± 54.4 μEq/24hours. Further, in the experiment with rats (Post-relaxin day 4-18), the Urine output is given as 9.1 ± 1.1 ml/24 hours and the Water intake is reported as 19.1 ± 2.6 mL.

As to “rhRLX: recombinant human relaxin, identical in amino acid sequence to the product of the human H2 gene; A chain of 24, B chain of 29 amino acids”, the 3H-thymidine uptake result in experiment [1] is on record as “did not alter”. The “surface necrotic area in the flap region” value is given as 123 mm^2 in experiment [2] (0.2 mg/kg via minipump, day 14); 103 mm^2 in experiment [2] (0.2 mg/kg via minipump, day 21); 123 mm^2 in experiment [2] (Example 4, day not stated). Moreover, in experiment [2] (immunohistochemical staining, systemic treatment), the “expression of NO synthase on vascular endothelium” value was “enhances”. Further, the “morphological changes, such as adherence to plastic or aggregation” value in the experiment with THP-1 cells is reported as “no observable morphological changes”. In the experiment on human cardiac cells, the “cellular proliferation, 3H-thymidine incorporation” value is reported as “no effect”.

These data come from patent US6723702B2, “Use of relaxin treat diseases related to vasoconstriction” (RAS Medical, Inc., priority 2000, dated 2004).
